Laboratory results reported in ChEMBL document CHEMBL1129497, “Guanine, pyrazolo[3,4-d]pyrimidine, and triazolo[4,5-d]pyrimidine (8-azaguanine) phosphonate acyclic derivatives as inhibitors of purine nucleoside phosphorylase” (J Med Chem, 1996).

Target: T1, Purine nucleoside phosphorylase (Homo sapiens, UniProt P00491)
T1 sequence (P00491 whole entry): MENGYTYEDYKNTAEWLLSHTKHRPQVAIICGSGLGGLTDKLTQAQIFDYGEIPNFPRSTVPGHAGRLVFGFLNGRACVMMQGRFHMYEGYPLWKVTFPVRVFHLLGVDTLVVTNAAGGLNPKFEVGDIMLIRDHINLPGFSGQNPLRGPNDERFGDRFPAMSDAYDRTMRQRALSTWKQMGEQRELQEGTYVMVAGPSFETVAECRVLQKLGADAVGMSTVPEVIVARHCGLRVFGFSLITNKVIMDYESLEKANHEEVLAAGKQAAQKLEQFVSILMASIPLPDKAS
Test: In vitro inhibition of purine nucleoside phosphorylase isolated from human erythrocytes.

| Compound | Ki [nM] |
| --- | --- |
| Nc1nc(O)c2nn(COCCCCCP(=O)(O)O)nc2n1 | 550 |
| Nc1nc2c(ncn2COCCCCOP(=O)(O)O)c(=O)[nH]1 | 51 |
| Nc1nc(O)c2ncn(CCCCCCCP(=O)(O)O)c2n1 | 530 |
| Nc1nc2c(cnn2COCCCCCCP(=O)(O)O)c(=O)[nH]1 | 630 |
| Nc1nc2c(nnn2COCCCCCP(=O)(O)O)c(=O)[nH]1 | 96 |
| Nc1nc2c(nnn2COCCCCP(=O)(O)O)c(=O)[nH]1 | 48 |
| Nc1nc(O)c2nnn(CCCCP(=O)(O)O)c2n1 | 7300 |
| Nc1nc2c(cnn2COCCCCCP(=O)(O)O)c(=O)[nH]1 | 230 |
| Nc1nc2c(ncn2CCCCCCCCCCP(=O)(O)O)c(=O)[nH]1 | 1600 |
| Nc1nc2c(ncn2COCCCCCP(=O)(O)O)c(=O)[nH]1 | 160 |
| Nc1nc2c(cnn2CCCCCCCP(=O)(O)O)c(=O)[nH]1 | 580 |
| Nc1nc2c(cnn2CCCCCCCCP(=O)(O)O)c(=O)[nH]1 | 1100 |
| Nc1nc2c(ncn2CCCCCCC(F)(F)P(=O)(O)O)c(=O)[nH]1 | 57 |
| Nc1nc2c(ncn2COCCCCCCP(=O)(O)O)c(=O)[nH]1 | 220 |
| Nc1nc(O)c2ncn(COCCCCP(=O)(O)O)c2n1 | 56 |
| Nc1nc(O)c2ncn(CCCCCCCCP(=O)(O)O)c2n1 | 390 |
| Nc1nc(O)c2nnn(COCCCCCCP(=O)(O)O)c2n1 | 190 |
| Nc1nc(O)c2nnn(CCCCCCP(=O)(O)O)c2n1 | 360 |
| Nc1nc2c(cnn2CCCCCCC(F)(F)P(=O)(O)O)c(=O)[nH]1 | 49 |
| Nc1nc(O)c2nnn(CCCCCP(=O)(O)O)c2n1 | 65 |
